Experiments:
[1] = system: soluble and insoluble Aβ in the brain; assay: Assay 11 effect on Aβ deposits in transgenic animals (soluble and insoluble Aβ, Western blot); format: in vivo, APP2576 transgenic mouse; details: APP2576 mice; for Tg mice Insoluble Fraction: % change compared with vehicle alone control mice: insoluble Aβ; for Tg mice Soluble Fraction: % change compared with vehicle alone control mice: soluble Aβ
[2] = Assay 16 mouse plasma levels of test compounds; format: in vivo; details: for Conc. in mouse plasma / concentration at 30 min / concentration at 60 min: single mouse; for Assay 16 Mice plasma concentration: highest level found in mice (Up to), oral dosing 30 mg/kg described for PB 1075-1077; for concentration at 30 min / concentration at 60 min: mouse, plasma, po, 30 mg/kg, read-out: Conc. in mouse plasma
In short: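 Compound given orally by gavage at 30 mg/kg as CMC suspension to four mice; two sacrificed at 30 min and two at 60 min, plasma from cardiac blood. Plasma levels by LC/MS (triple quadrupole, C8 column, ACN/water 0.05% formic acid gradient) after ACN protein precipitation.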

[3] = system: Aβ1-42 toxicity in neuronal cortical cells; assay: Assay 3(c) Aβ neurotoxicity and neuroprotection (MTS); format: cell-based, mouse; details: 20 uM Aβ1-42, cortical neurons, 4 days
Experimental: Primary Cortical Neuronal Cultures
Cortical cultures were prepared as previously described (White et al., 1998). Embryonic day 14 BL6Jx129sv mouse cortices were removed, dissected free of meninges and dissociated in 0.025% (wt/vol) trypsin. Dissociated cells were plated in 48 well culture plates at a density of 2×10^6 cells/mL in MEM with 25% (vol/vol) FCS and 5% (vol/vol) HS and incubated at 37° C., 2 hrs. Media was then replaced with Neurobasal media (Invitrogen Life Technologies) and B27 supplements (Invitrogen Life Technologies). Cultures were maintained at 37° C. in 5% CO2. Prior to experimentation, the culture medium was replaced with Neurobasal media and B27 minus antioxidants (Invitrogen Life Technologies).
(c) Assay for Aβ Neurotoxicity and Aβ Neuroprotection
Neuronal cortical cells were cultured for five days as per Assay 2. On day six the neurobasal (NB) media (Invitrogen Life Technologies) and B27 supplement (Invitrogen Life Technologies) were replaced with NB media and B27 supplement (no antioxidants). On day six, test compounds were individually added to the neuronal cell cultures:
The test compounds were dissolved in 100% DMSO to a concentration of 2.5 mM (10 mM if excess compound was weighed out per vial—then diluted to 2.5 mM). 2.5 mM stock solution was serially diluted 1 in 10 to give working solutions of 250 uM, 25 uM, 2.5 uM.
Aβ was initially dissolved in 20 mM NaOH to a concentration of 1 mM and sonicated for 5 minutes. The peptide was then diluted in H2O and 10×PBS to a final concentration of 200 uM Aβ in 1× PBS. The peptide was again sonicated for 5 minutes and then spun at 14000 rpm for 5 min and transferred to a fresh tube.
The test compounds were dissolved in 100% DMSO to a concentration of 2.5 mM (10 mM if excess compound was weighed out per vial—then diluted to 2.5 mM). 2.5 mM stock solution was serially diluted 1 in 10 [in NB media and B27 (no antioxidants)] to give working solutions of 250 uM, 25 uM, 2.5 uM. Test compounds were not added directly to cells, instead they were added to a 48 well ‘Drug Plate’ as comprised below:
Preparation of “Drug Plate”:
Well 1: 515 ul NB+B27 (no antioxidant)*+24 ul 25 uM test compound+60 ul Aβ diluent**
Well 2: 515 ul NB+B27 (no antioxidant)+24 ul 250 uM test compound+60 ul Aβ diluent
Well 3: 515 ul NB+B27 (no antioxidant)+24 ul test compound diluent***+60 ul Aβ1-42
Well 4: 515 ul NB+B27 (no antioxidant)+24 ul 2.5 uM test compound+60 ul Aβ1-42
Well 5: 515 ul NB+B27 (no antioxidant)+24 ul 25 uM test compound+60 ul Aβ1-42
Well 6: 515 ul NB+B27 (no antioxidant)+24 ul 250 uM test compound+60 ul Aβ1-42 diluent
Well 7: 515 ul NB+B27 (no antioxidant)+24 ul test compound diluent+60 ul Aβ1-42 diluent
Well 8: 600 ul NB+B27 (no antioxidant)
The Drug Plate was incubated at 37° C. for 15 mins. 200 ul of each well was added in triplicate to the corresponding cell plate. The cell plate was incubated at 37 C, for 4 days.
* NB media+B27 (no antioxidants)
** Aβ diluent 2 mM NaOH, 1×PBS
*** PBT diluent 10% DMSO in NB+B27 (no antioxidant)
On the 4th day after treating the cells the assay is completed by adding MTS to the cells.

[4] = 30 min after oral dosing at 30 mg/kg
[5] = 60 min after oral dosing at 30 mg/kg

Row | Compound | Tg mice Insoluble Fraction: % change compared with vehicle alone control mice [1] | Tg mice Soluble Fraction: % change compared with vehicle alone control mice [1] | Conc. in mouse plasma ([2]; 30 min after oral dosing at 30 mg/kg, listed as PB 1075, 30 mg/kg) [ng/mL] | Conc. in mouse plasma ([2]; 60 min after oral dosing at 30 mg/kg, listed as PB 1075, 30 mg/kg) [ng/mL] | Assay 16 Mice plasma concentration [2] | concentration at 30 min [2, 4] [ng/mL] | concentration at 60 min [2, 5] [ng/mL] | Conc. in mouse plasma ([2]; 30 min after oral dosing at 30 mg/kg, listed as PB 1077, 30 mg/kg) [ng/mL] | Conc. in mouse plasma ([2]; 60 min after oral dosing at 30 mg/kg, listed as PB 1077, 30 mg/kg) [ng/mL] | Assay 3(c) Neuroprotection (% inhibition of Abeta toxicity) [3] [%]
1 | O=c1c2c(Cl)cc(Cl)c(O)c2ncn1CCN1CCCC1 [Compound 1075] | +9% (insol), | −19% (sol), | 298.46 | 424.81 | Up to 520 ng/mL | 431 | 520 |  |  | 
2 | O=c1c2c(Cl)cc(Cl)c(O)c2ncn1Cc1ccccn1 [Compound 1077] | Negligible effect on | −17% (sol), |  |  | Up to 984 ng/mL | 731 | 495 | 984.7 | 752.8 | 
3 | Cc1nc(Cn2cnc3c(O)c(Cl)cc(Cl)c3c2=O)cs1 [Compound 1084] | −17% (insol), | −29% (sol) |  |  | Upto 2439 ng/mL |  |  |  |  | 2
4 | Cc1noc(C)c1Cn1cnc2c(O)c(Cl)cc(Cl)c2c1=O [Compound 1085] |  |  |  |  | Upto 3644 ng/mL |  |  |  |  | 7
5 | Br.CCCn1cnc2c(O)c(Cl)cc(Cl)c2c1=O [Compound 1097] | +1% (insol) | −22% (sol) |  |  | Upto 261 ng/mL in |  |  |  |  | 

Reference: patent US8084459B2, “Substituted quinazolinones for treating neurological conditions” (Prana Biotechnology Ltd, priority 2004, dated 2011)
